Data published in PubChem BioAssay AID2060605 (Molecular Pharmacology Branch, DTP, NCI, 2025).
Blank lines part the entries; values can stand above or below the molecule they belong to.

System: 947758-054-R-J2-PDC spheroid growth, percent test/control
Experiment: Anticancer human tumor 947758-054-R-J2-PDC patient-derived colon adenocarcinoma cell line growth inhibition [CLK]
Details: spheroids with HUVEC and MSC; for IC50: curve of first compound; for viability, T/C: stronger effect = lower value
In short: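 Patient-derived tumor cells grown as complex spheroids with HUVEC endothelial cells and mesenchymal stem cells, treated with drug combinations. Concentrations descend in half-log steps from near clinical Cmax, or from 10 microM if Cmax unknown.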

[1] = second compound 0.0316 µM, first compound 0.0316 µM
[2] = second compound 0.0316 µM, first compound 0.1 µM
[3] = second compound 0.0316 µM, first compound 0.316 µM
[4] = second compound 0.0316 µM, first compound 1 µM
[5] = second compound 0.0316 µM, first compound 3.16 µM
[6] = second compound 0.0316 µM, first compound 10 µM
[7] = second compound 0.1 µM, first compound 0.0316 µM
[8] = second compound 0.1 µM, first compound 0.1 µM
[9] = second compound 0.1 µM, first compound 0.316 µM
[10] = second compound 0.1 µM, first compound 1 µM
[11] = second compound 0.1 µM, first compound 3.16 µM
[12] = second compound 0.1 µM, first compound 10 µM
[13] = second compound 0.316 µM, first compound 0.0316 µM
[14] = second compound 0.316 µM, first compound 0.1 µM
[15] = second compound 0.316 µM, first compound 0.316 µM
[16] = second compound 0.316 µM, first compound 1 µM
[17] = second compound 0.316 µM, first compound 3.16 µM
[18] = second compound 0.316 µM, first compound 10 µM
[19] = second compound 1 µM, first compound 0.0316 µM
[20] = second compound 1 µM, first compound 0.1 µM
[21] = second compound 1 µM, first compound 0.316 µM
[22] = second compound 1 µM, first compound 1 µM
[23] = second compound 1 µM, first compound 3.16 µM
[24] = second compound 1 µM, first compound 10 µM
[25] = second compound 3.16 µM, first compound 0.0316 µM
[26] = second compound 3.16 µM, first compound 0.1 µM
[27] = second compound 3.16 µM, first compound 0.316 µM
[28] = second compound 3.16 µM, first compound 1 µM
[29] = second compound 3.16 µM, first compound 3.16 µM
[30] = second compound 3.16 µM, first compound 10 µM
[31] = second compound 10 µM, first compound 0.0316 µM
[32] = second compound 10 µM, first compound 0.1 µM
[33] = second compound 10 µM, first compound 0.316 µM
[34] = second compound 10 µM, first compound 1 µM
[35] = second compound 10 µM, first compound 3.16 µM
[36] = second compound 10 µM, first compound 10 µM
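Also: spheroids exposed to compounds for one week before readout.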
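For viability, T/C in this document: 100% = DMSO vehicle control wells.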

IC50 (second compound 0.0316 µM): > 10 µM | IC50 (second compound 0.1 µM): > 10 µM | IC50 (second compound 0.316 µM): > 10 µM | IC50 (second compound 1 µM): 3.64 µM | IC50 (second compound 3.16 µM): < 0.0316 µM | IC50 (second compound 10 µM): < 0.0316 µM
SMILES: C#Cc1c(F)ccc2cc(O)cc(-c3ncc4c(N5CC6CCC(C5)N6)nc(OCC56CCCN5CC(F)C6)nc4c3F)c12 (centres undefined) + CNC(=O)c1ccc(Nc2nc(OC3CCCC3)c3c(-c4ccc5nc(C)oc5c4)c[nH]c3n2)c(OC)c1
viability, T/C [1]: 82.3% | viability, T/C [2]: 77.8% | viability, T/C [3]: 79.1% | viability, T/C [4]: 73.4% | viability, T/C [5]: 77% | viability, T/C [6]: 66.8% | viability, T/C [7]: 88.6% | viability, T/C [8]: 92.6% | viability, T/C [9]: 79% | viability, T/C [10]: 91.7% | viability, T/C [11]: 103% | viability, T/C [12]: 79.2% | viability, T/C [13]: 64.9% | viability, T/C [14]: 75.3% | viability, T/C [15]: 66.6% | viability, T/C [16]: 91% | viability, T/C [17]: 77.4% | viability, T/C [18]: 56.4% | viability, T/C [19]: 44.4% | viability, T/C [20]: 56.8% | viability, T/C [21]: 47.4% | viability, T/C [22]: 53.8% | viability, T/C [23]: 55.8% | viability, T/C [24]: 38.1% | viability, T/C [25]: 43.2% | viability, T/C [26]: 35.4% | viability, T/C [27]: 40.4% | viability, T/C [28]: 46.7% | viability, T/C [29]: 44.4% | viability, T/C [30]: 29.5% | viability, T/C [31]: 36% | viability, T/C [32]: 24.8% | viability, T/C [33]: 30.9% | viability, T/C [34]: 32.2% | viability, T/C [35]: 31.7% | viability, T/C [36]: 24.4%

IC50 (second compound 0.0316 µM): 6.1 µM | IC50 (second compound 0.1 µM): 4.95 µM | IC50 (second compound 0.316 µM): 3.83 µM | IC50 (second compound 1 µM): < 0.0316 µM | IC50 (second compound 3.16 µM): < 0.0316 µM | IC50 (second compound 10 µM): < 0.0316 µM
SMILES: C=C(F)C(=O)N1CCN(c2nc(OCC3CCCN3C)nc3c2CCN(c2cccc4cccc(Cl)c24)C3)CC1CC#N (centres undefined) + CNC(=O)c1ccc(Nc2nc(OC3CCCC3)c3c(-c4ccc5nc(C)oc5c4)c[nH]c3n2)c(OC)c1
viability, T/C [1]: 88.6% | viability, T/C [2]: 66.7% | viability, T/C [3]: 83.4% | viability, T/C [4]: 99.7% | viability, T/C [5]: 132% | viability, T/C [6]: 16.8% | viability, T/C [7]: 96.9% | viability, T/C [8]: 71.1% | viability, T/C [9]: 79.6% | viability, T/C [10]: 98% | viability, T/C [11]: 76.9% | viability, T/C [12]: 7.83% | viability, T/C [13]: 76.9% | viability, T/C [14]: 65.9% | viability, T/C [15]: 57.6% | viability, T/C [16]: 77.2% | viability, T/C [17]: 59.2% | viability, T/C [18]: 3.73% | viability, T/C [19]: 38.5% | viability, T/C [20]: 34.6% | viability, T/C [21]: 35.7% | viability, T/C [22]: 54.8% | viability, T/C [23]: 47.5% | viability, T/C [24]: 0.18% | viability, T/C [25]: 41.5% | viability, T/C [26]: 34.3% | viability, T/C [27]: 31.2% | viability, T/C [28]: 47.8% | viability, T/C [29]: 32.4% | viability, T/C [30]: 0.49% | viability, T/C [31]: 29.4% | viability, T/C [32]: 33.3% | viability, T/C [33]: 30% | viability, T/C [34]: 30.2% | viability, T/C [35]: 21.6% | viability, T/C [36]: 0.36%
